Data taken from patent US20240226178A1, “ELECTROPHYSIOLOGICAL MODIFICATION TO SUPPRESS ARRHYTHMIAS” (UNIVERSITY OF WASHINGTON, priority 2021, published 2024).

Experiments:
[1] = tested on: RUES2 hESC-CMs wild-type; experiment: MEA dose-response of compounds on spontaneous electrical activity of hESC-CMs; format: cell-based, human; settings: for beating frequency / beat rate (effect in words) / spike amplitude (effect in words): RUES2 hESC-CMs wild-type on MEA, increasing doses vs DMSO control
Source text: FIGS. 6A-6F. […] Data shown as mean±SEM of 2 independent experiments each with 6 technical replicates (wells), and normalized on experimental baseline and expressed as % vs. DMSO control. Lines represents nonlinear regression of normalized response Y=100/(1+10^((LogIC50-X)*HillSlope))).
FIGS. 13A-13C. […] (FIGS. 13A, 13B, 13C) Dose-response curve of Mibefradil (ICaT, FIG. 13A), Zacopride (IK1 agonist, FIG. 13B) and Verapamil (L-type calcium channel inhibitor, FIG. 13C) on MEA system. Data shown as mean±SEM of 2 independent experiments normalized on baseline and expressed as % vs DMSO control (N=2, n=6). Lines represent nonlinear regression of normalized response Y=100/(1+10^((LogIC50-X)*HillSlope))).
The role of ion channels in automaticity has been so far largely studied in the context of the adult mouse sinoatrial node. Whether the same mechanisms also apply to hPSC-CMs and/or fetal human cardiomyocytes remains controversial. First, a variety of pharmacological compounds were tested on hPSC-CMs derived from the RUES2 human embryonic stem cells (hESCs), which were differentiated by sequential small molecule-based activation and inhibition of the WNT pathway. The inventors performed electrophysiological analyses using a multielectrode array (MEA) to record the effects of the different compounds on hPSC-CMs spontaneous electrical activity. […] Zacopride, reported to have agonistic effect on the Kir2.1 channel (encoded by KCNJ2) that mediates IKI currents, was also tested.
CytoView™ MEA 48 were coated with 0.17 mg/mL of Matrigel for 1 hour at 37° C. […] For spontaneous beat recording, spontaneous electrical activity was recorded for 5 min using Maestro™ Pro system at 37° C. with 5% CO2. Considering the irregular beat rate of the cell lines bearing KCNJ2 KI, the data are shown as total number of beats recorded per experiment, divided by the total time of recording (average beats/min). For pharmacological studies, the different compounds were diluted in DMSO and incubated directly on MEA plates for 5 min at 37° C. Effects on spontaneous beat rate was determined by recording for 15 min after drug incubation. Non-linear regression curve calculated as Y=100/(1+10^((LogIC50-X)*HillSlope))). […] Quantification of beat rate, spike amplitude and beat period irregularity was performed using Axis Navigator (beat detector threshold: 30-100 μV; Minimum beat period: 200-500 ms; Maximum beat period: 30s).

[2] = tested on: EA in pigs; settings: after hPSC-CM transplantation, reference [17]; cited from earlier work

Compound | beating frequency / beat rate (effect in words) [1] | spike amplitude (effect in words) [1] | also measured
COc1cc(N)c(Cl)cc1C(=O)NC1CN2CCC1CC2 (stereo not shown) [Zacopride] | did not show measurable effects | did not show measurable effects | –
CCOc1ccc(Oc2ccc(OCc3cc(F)ccc3F)cc2)c(N)c1 [SEA0400] | dose-dependent reduction | dose-dependent reduction | –
COCC(=O)O[C@]1(CCN(C)CCCc2nc3ccccc3[nH]2)CCc2cc(F)ccc2[C@@H]1C(C)C [Mibefradil] | – | – | IC50 ([1]; Homo sapiens, MEA dose-response, nonlinear regression of normalized response, log value, concentration unit inferred): 0.02 µM
CC(C)(C)CCN1C[C@@H]2C(CNC(=O)c3cc(Cl)cc(Cl)c3)[C@@H]2C1 (stereo partly shown) [ML-218] | no effect on beating frequency until spike amplitudes were undetectable | – | LogIC50 ([1]; MEA dose-response, nonlinear regression of normalized response, log value, concentration unit not given): −4.8±0.1424; doses at which spike amplitude decreased ([1]; MEA, hESC-CMs): above 1 μM
N=C(N)SCCc1ccc(OCc2ccc([N+](=O)[O-])cc2)cc1 [KB-R3702] | dose-dependent reduction | dose-dependent reduction | –
COc1cc2c(cc1OC)CC(=O)N(CCCN(C)C[C@H]1Cc3cc(OC)c(OC)cc31)CC2 [Ivabradine] | potently reduced | did not alter | spontaneous AP firing ([1]; very high doses of ivabradine (100 μM)): did not prevent; effect on EA in pigs [2]: reduces heart rate but does not prevent EA
COc1ccc(CCN(C)CCCC(C#N)(c2ccc(OC)c(OC)c2)C(C)C)cc1OC (stereo not shown) [Verapamil] | progressively decrease | progressively decrease | –
